In US9040663B2, “Melanocortin receptor-specific peptides” (AstraZeneca AB, priority 2009, dated 2015):
Where two headings read alike, the source gives them in different places. Positions of bridges follow the written chain, without caps; N, C: chain ends. Non-standard residues stand in square brackets, D forms with d. Residues, ends and D or L forms follow the SMILES beside them. dPhe(4-CN) = N#Cc1ccc(C[C@@H](N)C(=O)O)cc1; Orn = NCCC[C@H](N)C(=O)O

Columns and labels:
hMC4-R [1] = biological target: T1, hMC4-R (Homo sapiens (Human), UniProt P32245); test: Competitive inhibition binding assay using [I125]-NDP-α-MSH, hMC4-R; conditions: membranes of HEK-293 cells expressing recombinant hMC4-R, read-out: MC4-R Ki
hMC4-R [2] = biological target: T1, hMC4-R; test: High and low density hMC4-R functional assay (cAMP, HEK293-T-REx-MC4-R cells); format: cell-based; conditions: for Emax: NDP-α-MSH = 100%, read-out: Intrinsic Activity (%)
MC1-R = test: Competitive inhibition binding assay using [I125]-NDP-α-MSH, MC1-R; conditions: membranes of B-16 mouse melanoma cells (endogenous MC1-R), in some instances HEK-293 hMC1-R
Protocol: 7.1 Competitive Inhibition Assay using [I^125]-NDP-α-MSH.
A competitive inhibition binding assay was performed for exemplified peptides according to the invention using membrane homogenates prepared from HEK-293 cells that express recombinant hMC4-R, hMC3-R, or hMC5-R, and from B-16 mouse melanoma cells (containing endogenous MC1-R). In some instances, HEK-293 cells that express recombinant hMC1-R were employed. Assays were performed in 96 well GF/B Millipore multiscreen filtration plates (MAFB NOB10) pre-coated with 0.5% bovine serum albumin (Fraction V). Membrane homogenates were incubated with 0.2 nM (for hMC4-R) 0.4 nM (for MC3-R and MC5-R) or 0.1 nM (for mouse B16 MC1-R or hMC1-R) [I^125]-NDP-α-MSH (Perkin Elmer) and increasing concentrations of test peptides of the present invention in buffer containing 25 mM HEPES buffer (pH 7.5) with 100 mM NaCl, 2 mM CaCl2, 2 mM MgCl2, 0.3 mM 1,10-phenanthroline, and 0.2% bovine serum albumin. After incubation for 60 minutes at 37° C., the assay mixture was filtered and the membranes washed three times with ice-cold buffer. Filters were dried and counted in a gamma counter for bound radioactivity. […] Maximal specific binding (100%) was defined as the difference in radioactivity (cpm) bound to cell membranes in the absence and presence of 1 μM NDP-α-MSH. […] Each assay was conducted in triplicate and the actual mean values are described, with results less than 0% reported as 0%. Ki values for test peptides of the present invention were determined using Graph-Pad Prism® curve-fitting software.

[3] = 0.1 ng/mL Doxycycline (low density hMC4-R system)
[4] = 10 ng/mL Doxycycline (high density hMC4-R system)

T1 sequence (P32245 whole entry): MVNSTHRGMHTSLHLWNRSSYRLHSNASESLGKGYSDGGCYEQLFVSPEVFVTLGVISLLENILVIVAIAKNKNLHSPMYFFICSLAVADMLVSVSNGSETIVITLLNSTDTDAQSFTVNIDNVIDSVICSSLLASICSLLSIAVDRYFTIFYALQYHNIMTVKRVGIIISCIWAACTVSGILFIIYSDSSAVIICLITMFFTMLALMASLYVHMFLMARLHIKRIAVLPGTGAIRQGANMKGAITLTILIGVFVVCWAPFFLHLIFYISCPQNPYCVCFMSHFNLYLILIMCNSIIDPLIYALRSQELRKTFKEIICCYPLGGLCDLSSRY

Ki (hMC4-R [1]) [nM]	EC50 (hMC4-R [2]; [3]) [nM]	Emax (hMC4-R [2]; [3]) [%]	EC50 (hMC4-R [2]; [4]) [nM]	Emax (hMC4-R [2]; [4]) [%]	Ki (MC1-R) [nM]	Structure (SMILES)
3	0.65	43	0.125	87	190	CC(=O)N[C@@H](CCCNC(=N)N)C(=O)N[C@H]1CCCNC(=O)CC[C@@H](C(N)=O)NC(=O)[C@H](Cc2c[nH]c3ccccc23)NC(=O)[C@H](CCCNC(=N)N)NC(=O)[C@@H](Cc2ccc(F)c(F)c2)NC(=O)[C@H](CC(N)=O)NC1=O [Example 75, Ac-Arg-cyclo(Orn-Asn-D-Phe(3,4-diF)-Arg-Trp-Glu)-NH2]
0.08	0.07	28	0.16	100	0.3	CC(=O)N[C@@H](CCCNC(=N)N)C(=O)N[C@H]1CCC(=O)NCCC[C@@H](C(N)=O)NC(=O)[C@H](Cc2c[nH]c3ccccc23)NC(=O)[C@H](CCCNC(=N)N)NC(=O)[C@@H](Cc2ccc(Cl)cc2)NC(=O)[C@H](CCN)NC1=O [Example 3, Ac-Arg-cyclo(Glu-Dab-D-Phe(4-Cl)-Arg-Trp-Orn)-NH2]
0.25	0.15	28	0.16	97	0.15	COc1ccc(C[C@H]2NC(=O)[C@H](CCN)NC(=O)[C@@H](NC(=O)[C@H](CCCNC(=N)N)NC(C)=O)CCC(=O)NCCC[C@@H](C(N)=O)NC(=O)[C@H](Cc3c[nH]c4ccccc34)NC(=O)[C@H](CCCNC(=N)N)NC2=O)cc1 [Example 16, Ac-Arg-cyclo(Glu-Dab-D-Phe(4-OMe)-Arg-Trp-Orn)-NH2]
15		6	4	93	545	CC(=O)N[C@@H](CCCNC(=N)N)C(=O)N[C@H]1CCC(=O)NCCC[C@@H](C(N)=O)NC(=O)[C@H](Cc2c[nH]c3ccccc23)NC(=O)[C@H](CCCNC(=N)N)NC(=O)[C@@H](Cc2ccccc2Cl)NC(=O)[C@H](Cc2cccc(C(N)=O)c2)NC1=O [Example 48, Ac-Arg-cyclo(Glu-Phe(3-C(═O)—NH2)-D-Phe(2-Cl)-D-Phe-Arg-Trp-Orn)-NH2]
0.6	0.325	31	0.2	99	6	CC(=O)N[C@H](CCCNC(=N)N)C(=O)N[C@H]1CCCNC(=O)CC[C@@H](C(N)=O)NC(=O)[C@H](Cc2c[nH]c3ccccc23)NC(=O)[C@H](CCCNC(=N)N)NC(=O)[C@@H](Cc2ccc(C#N)cc2)NC(=O)[C@H](Cc2c[nH]cn2)NC1=O [Example 52, Ac-D-Arg-cyclo(Orn-His-D-Phe(4-CN)-Arg-Trp-Glu)-NH2]
8	7	33		98	300	CC(=O)N[C@@H](CCCNC(=N)N)C(=O)N[C@H]1CCC(=O)NCCC[C@@H](C(N)=O)NC(=O)[C@H](Cc2c[nH]c3ccccc23)NC(=O)[C@H](CCCNC(=N)N)NC(=O)[C@@H](Cc2ccccc2Cl)NC(=O)[C@H](CO)NC1=O [Example 31, Ac-Arg-cyclo(Glu-Ser-D-Phe(2-Cl)-Arg-Trp-Orn)-NH2]
7	1	79		97	128	CC(=O)N[C@@H](CCCNC(=N)N)C(=O)N[C@H]1CCC(=O)NCCC[C@@H](C(N)=O)NC(=O)[C@H](Cc2c[nH]c3ccccc23)NC(=O)[C@H](CCCNC(=N)N)NC(=O)[C@@H](Cc2ccccc2Cl)NC(=O)[C@H](CCC(N)=O)NC1=O [Example 34, Ac-Arg-cyclo(Glu-Gln-D-Phe(2-Cl)-Arg-Trp-Orn)-NH2]
10	4	48	0.2	85	395	CC(=O)N[C@H](CCCNC(=N)N)C(=O)N[C@H]1CC(=O)NCCCC[C@@H](C(N)=O)NC(=O)[C@H](Cc2c[nH]c3ccccc23)NC(=O)[C@H](CCCNC(=N)N)NC(=O)[C@@H](Cc2ccccc2Cl)NC(=O)[C@H](CCC(N)=O)NC1=O [Example 79, Ac-D-Arg-cyclo(Asp-Gln-D-Phe(2-Cl)-Arg-Trp-Lys)-NH2]
0.65	0.25	89	0.095	100	1	CC(=O)N[C@H](CCCNC(=N)N)C(=O)N[C@H]1CCCNC(=O)CC[C@@H](C(N)=O)NC(=O)[C@H](Cc2c[nH]c3ccccc23)NC(=O)[C@H](CCCNC(=N)N)NC(=O)[C@@H](Cc2ccc(F)cc2)NC(=O)[C@H](Cc2c[nH]cn2)NC1=O [Example 57, Ac-D-Arg-cyclo(Orn-His-D-Phe(4-F)-Arg-Trp-Glu)-NH2]
2	0.85	55	0.075	91	33	CC(=O)N[C@@H](CCCNC(=N)N)C(=O)N[C@H]1CCC(=O)NCCC[C@@H](C(N)=O)NC(=O)[C@H](Cc2c[nH]c3ccccc23)NC(=O)[C@H](CCCNC(=N)N)NC(=O)[C@@H](Cc2ccc(F)cc2)NC(=O)[C@H](CCS(C)(=O)=O)NC1=O [Example 68, Ac-Arg-cyclo(Glu-Met(O2)-D-Phe(4-F)-Arg-Trp-Orn)-NH2]
	5	67	0.25	100	138	CC(=O)N[C@@H](CCCNC(=N)N)C(=O)N[C@H]1CCC(=O)NCCC[C@@H](C(N)=O)NC(=O)[C@H](Cc2c[nH]c3ccccc23)NC(=O)[C@H](CCCNC(=N)N)NC(=O)[C@@H](Cc2ccccc2F)NC(=O)[C@H](CO)NC1=O [Example 58, Ac-Arg-cyclo(Glu-Ser-D-Phe(2-F)-Arg-Trp-Orn)-NH2]
6	5	32	0.265	88	95	CC(=O)N[C@@H](CCCNC(=N)N)C(=O)N[C@H]1CCC(=O)NCCC[C@@H](C(N)=O)NC(=O)[C@H](Cc2c[nH]c3ccccc23)NC(=O)[C@H](CCCNC(=N)N)NC(=O)[C@@H](Cc2ccccc2F)NC(=O)[C@@H]2CCCN2C1=O [Example 66, Ac-Arg-cyclo(Glu-Pro-D-Phe(2-F)-Arg-Trp-Orn)-NH2]
5	1	58	0.085	93	43	CC(=O)N[C@@H](CCCNC(=N)N)C(=O)N[C@H]1CCC(=O)NCCC[C@@H](C(N)=O)NC(=O)[C@H](Cc2c[nH]c3ccccc23)NC(=O)[C@H](CCCNC(=N)N)NC(=O)[C@@H](Cc2ccc(F)cc2)NC(=O)[C@H](CO)NC1=O [Example 65, Ac-Arg-cyclo(Glu-Ser-D-Phe(4-F)-Arg-Trp-Orn)-NH2]
	9	36		96	3970	CC(=O)N[C@@H](CCCNC(=N)N)C(=O)N[C@H]1CCC(=O)NCCC[C@@H](C(=O)O)NC(=O)[C@H](Cc2c[nH]c3ccccc23)NC(=O)[C@H](CCCNC(=N)N)NC(=O)[C@@H](Cc2ccc(C#N)cc2)NC(=O)[C@H](CCC(N)=O)NC1=O [Example 86, Ac-Arg-cyclo(Glu-Gln-D-Phe(4-CN)-Arg-Trp-Orn)-OH]
		4		64	10000	CC(=O)N[C@@H](CCCNC(=N)N)C(=O)N[C@H]1CCC(=O)NCCC[C@@H](C(=O)O)NC(=O)[C@H](Cc2c[nH]c3ccccc23)NC(=O)[C@H](CCCNC(=N)N)NC(=O)[C@@H](Cc2ccc(C#N)cc2)NC(=O)[C@H](CC(=O)O)NC1=O [Example 107, Ac-Arg-cyclo(Glu-Asp-D-Phe(4-CN)-Arg-Trp-Orn)-OH] (Ac-RED[dPhe(4-CN)]RW[Orn]-OH; lactam 2-7)
		3		77	10000	CC(=O)N[C@@H](CCCNC(=N)N)C(=O)N[C@H]1CCC(=O)NCCC[C@@H](C(N)=O)NC(=O)[C@H](Cc2c[nH]c3ccccc23)NC(=O)[C@H](CCCNC(=N)N)NC(=O)[C@@H](Cc2ccc(C#N)cc2)NC(=O)[C@H](CC(=O)O)NC1=O [Example 106, Ac-Arg-cyclo(Glu-Asp-D-Phe(4-CN)-Arg-Trp-Orn)-NH2] (Ac-RED[dPhe(4-CN)]RW[Orn]-NH2; lactam 2-7)
		3	9	59	10000	CC(=O)N[C@@H](CCCNC(=N)N)C(=O)N[C@H]1CCC(=O)NCCC[C@@H](C(N)=O)NC(=O)[C@H](Cc2c[nH]c3ccccc23)NC(=O)[C@H](CCCNC(=N)N)NC(=O)[C@@H](Cc2ccc(C#N)cc2)NC(=O)[C@H](CCC(=O)O)NC1=O [Example 108, Ac-Arg-cyclo(Glu-Glu-D-Phe(4-CN)-Arg-Trp-Orn)-NH2] (Ac-REE[dPhe(4-CN)]RW[Orn]-NH2; lactam 2-7)
